From US20120165319A1, “INHIBITORS OF INTERLEUKIN-1 BETA CONVERTING ENZYME” (VERTEX PHARMACEUTICALS INCORPORATED, priority 1995, published 2012)
Read-outs that look alike come from different tables or passages of the source.

Columns and labels:
IL-1β, human whole blood = assay: Whole blood assay for IL-1β production; type: cell-based; details: read-out: Whole human blood IC50
Method in brief: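 Human whole blood collected on Na2EDTA was treated with serially diluted compound in saline and then stimulated with LPS at 5.0 ng/ml final, for 16-18 h at 30 °C, in duplicate or triplicate. Plasma IL-1β was measured by ELISA at 1:200 dilution.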

ICE = biological target: T1, ICE (Homo sapiens, UniProt P29466); assay: Enzyme assay with UV-visible substrate (visible ICE assay, Succinyl-Tyr-Val-Ala-Asp-pNitroanilide); type: biochemical
T1 sequence (P29466 120-297 limits assumed): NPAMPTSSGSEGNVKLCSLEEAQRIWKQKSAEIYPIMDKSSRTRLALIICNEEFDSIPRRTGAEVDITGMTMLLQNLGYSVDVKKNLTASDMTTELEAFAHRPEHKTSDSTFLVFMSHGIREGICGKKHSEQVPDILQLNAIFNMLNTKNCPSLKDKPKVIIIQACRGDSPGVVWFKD
T1 sequence (P29466 317-404 limits assumed): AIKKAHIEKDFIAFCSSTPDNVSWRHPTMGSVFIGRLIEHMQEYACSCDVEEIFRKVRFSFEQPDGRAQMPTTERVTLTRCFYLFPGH
Method in brief: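 ICE preincubated with inhibitor in DMSO for 15 min at room temperature, then Suc-Tyr-Val-Ala-Asp-pNA added. pNA release read at 405-603 nm for 20 min at 37 °C, rate from linear fit in mOD/min. Ki and inhibition mode from fits of rates at varying inhibitor concentrations to standard kinetic equations.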

[1] = Homo sapiens, * = values obtained upon reassay
[2] = * = values obtained upon reassay

Structure (SMILES)	IC50 (IL-1β, human whole blood; [1])	Ki (ICE; Table 5)	IC50 (IL-1β, human whole blood; Homo sapiens, Table 17)	Ki (ICE; Table 17)	IC50 (IL-1β, human whole blood; [2])	IC50 (IL-1β, human whole blood; Table 17)
CC(C)(C)OC(=O)C[C@@H](C=O)NC(=O)[C@@H]1CCCN2C(=O)CC[C@H](NC(=O)c3ccccc3)C(=O)N12 [Compound 302, [3S(1S,9S)3-(9-Benzoylamino-6,10-dioxo-1,2,3,4,7,8,9,10-octahydro-6H-pyriazino-[1,2-a][1,2]diazapine-1-carboxamido)-amino]-4-oxobutanoic acid tert-butyl ester]	> 20000 nM	4500 nM				
CC(C)OC1OC(=O)C[C@@H]1NC(=O)[C@@H]1CCCN2C(=O)CC[C@H](NC(=O)c3ccccc3)C(=O)N12 (stereo partly drawn) [Compound 2100a, [1S,9S(2RS,3S)]9-Benzoylamino-6,10-dioxo-1,2,3,4,7,8,9,10-octahydro-N-(2-isopropoxy-5-oxo-tetrahydro-furan-3-yl)-6H-pyridazino-[1,2-a][1,2]diazepine-1-carboxamide]	850 nM	100 nM				
O=C1C[C@H](NC(=O)[C@@H]2CCCN3C(=O)CC[C@H](NC(=O)c4cccc5ccccc45)C(=O)N23)C(OCc2ccccc2)O1 (stereo partly drawn) [Compound 213v, [1S,9S(2RS,3S)]N-(2-Benzyloxy-5-oxotetrahydrofuran-3-yl)-6,10-dioxo-9-(naphth-1-oylamino)-1,2,3,4,7,8,9,10-octahydro-6H-pyridazino[1,2-a][1,2]diazepine-1-carboxamide]			1100 nM	0.5 nM		
O=C[C@H](CC(=O)O)NC(=O)[C@@H]1CCCN2C(=O)CCN(NS(=O)(=O)c3ccccc3)C(=O)N12 [Compound 1027, [3S(4S)]3-(6,10-Dioxo-1,2,3,4,7,8,9,10-octahydro-7-phenylsulphonylamino-6H-pyridazino[1,2-a][1,2,4]triazepine-4-carboxamido)-4-oxobutanoic acid]	> 20000 nM	4000 nM				
COC(=O)C[C@H](NC(=O)[C@@H]1CCCN2C(=O)CC[C@H](NC(=O)c3ccccc3)C(=O)N12)C(OC)OC [Compound 2100c]	> 20000 nM	7400 nM				
O=C[C@H](CC(=O)O)NC(=O)[C@@H]1CCCN2C(=O)CC[C@H](NC(=O)c3cccc(Cl)c3)C(=O)N12 [Compound 455]	2800 nM	1.2 nM			2600 nM	
Cc1ccccc1C(=O)N[C@H]1CCC(=O)N2CCC[C@@H](C(=O)N[C@H](C=O)CC(=O)O)N2C1=O [Compound 404]	1100 nM	2.9 nM				
CN(C)c1cccc(C(=O)N[C@H]2CCC(=O)N3CCC[C@@H](C(=O)N[C@H](C=O)CC(=O)O)N3C2=O)c1 [Compound 470]	360 nM	5 nM			500 nM	
COCC(=O)N1C[C@H](NC(=O)c2cccc3ccccc23)C(=O)N(CC(=O)N[C@H](C=O)CC(=O)O)c2ccccc21 [Compound 2201, (3S)-3-[(3S)-2-oxo-3-(1-naphthoyl)amino-5-methoxyacetyl-2,3,4,5-tetrahydro-1H-1,5-benzodiazepine-1-acetylamino]4-oxo-butyric acid]	3500 nM	9 nM				
O=C[C@H](CC(=O)O)NC(=O)[C@@H]1CCCN2CCC[C@H](NC(=O)c3ccccc3)C(=O)N12 [Compound 246]	10000 nM	12 nM				
Cc1nc(C)c(C(=O)N[C@H]2CCC(=O)N3CCC[C@@H](C(=O)N[C@H](C=O)CC(=O)O)N3C2=O)s1 [Compound 423]	1500 nM	10 nM				
O=C1C[C@H](NC(=O)[C@@H]2CCCN3C(=O)CC[C@H](NC(=O)C(=O)c4ccccc4)C(=O)N23)C(OCc2ccccc2)O1 (stereo partly drawn) [Compound 2001, [1S,9S(2RS,3S)]9-Benzoylformylamino-6,10-dioxo-1,2,3,4,7,8,9,10-octahydro-N-(2(R,S)-benzyloxy-5-oxotetrahydrofuran-3-yl)-6H-pyridazino[1,2-a][1,2]-diazepine-1-carboxamide]	3500 nM	135 nM				
O=C[C@H](CC(=O)O)NC(=O)[C@@H]1CCCN2C(=O)CC[C@H](NC(=O)c3ccc4nc[nH]c4c3)C(=O)N12 [Compound 434]	1800 nM	4.9 nM			1300 nM	
Cc1cc(C(=O)N[C@H]2CCC(=O)N3CCC[C@@H](C(=O)N[C@H](C=O)CC(=O)O)N3C2=O)cc(C)c1O [Compound 214w]				0.6 nM		370 nM
O=C[C@H](CC(=O)O)NC(=O)[C@@H]1CCCN2C(=O)CC[C@H](NC(=O)c3cc4ccsc4s3)C(=O)N12 [Compound 442]	2000 nM	3.2 nM				
CC(=O)N1C[C@H](NC(=O)c2cc(Cl)c(O)c(Cl)c2)C(=O)N(CC(=O)N[C@H](C=O)CC(=O)O)c2ccccc21 [Compound 656, (3S)-3-[(3S)-2-Oxo-3-(3,5-dichloro, 4-hydroxybenzoyl)amino-5-acetyl-2,3,4,5-tetrahydro-1H-1,5-benzodiazepine-1-acetylamino-]4-oxo-butyric acid]			1600 nM	0.6 nM		
O=C[C@H](CC(=O)O)NC(=O)[C@@H]1CCCN2C(=O)CC[C@H](NC(=O)c3cccc4ccccc34)C(=O)N12 [Compound 408, [3S(1S,9S)]3-[6,10-Dioxo-9-(naphth-1-oylamino)-1,2,3,4,7,8,9,10-octahydro-6H-pyridazino[1,2-a][1,2]diazepine-1-carboxamido]-4-oxobutanoic acid]	1000 nM	0.5 nM				
CC(C)CC(=O)Nc1ccc(C(=O)N[C@H]2CCC(=O)N3CCC[C@@H](C(=O)N[C@H](C=O)CC(=O)O)N3C2=O)cc1 [Compound 487, [3S(1S,9S)]3-{6,10-Dioxo-9-[4-(3-methylbutan-1-oylamino)benzamido]-1,2,3,4,7,8,9,10-octahydro-6H-pyridazino[1,2-a][1,2]diazepine-1-carboxamido}-4-oxobutanoic acid]	500 nM	2.4 nM			400 nM	
O=C(O)C[C@H](NC(=O)[C@@H]1CCCN2C(=O)CC[C@H](NC(=O)c3ccccc3)C(=O)N12)C(=O)CSCc1ccccc1Cl [Compound 226e, [3S(1S,9S)]3-(9-Benzoylamino-6,10-dioxo-1,2,3,4,7,8,9,10-octahydro-6H-pyridazino[1,2-a][1,2]-diazepine-1-carboxamido)-5-(2-chlorophenyl)methylthio-4-oxopentanoic acid]	1800 nM	15 nM				
O=C[C@H](CC(=O)O)NC(=O)CN1C(=O)[C@@H](NC(=O)c2cc(Cl)c(O)c(Cl)c2)CN(C(=O)CO)c2ccccc21 [Compound 662, (3S)-3-[(3S)-2-Oxo-3-(3,5-dichloro-4-hydroxybenzoyl)amino-5-(2-hydroxy)acetyl-2,3,4,5-tetrahydro-1H-1,5-benzodiazepine-1-acetylamino]-4-oxo-butyric acid]			800 nM	0.5 nM		
O=C[C@H](CC(=O)O)NC(=O)[C@@H]1CCCN2C(=O)CC[C@H](NC(=O)c3ccccc3)C(=O)N12 [Compound 214e, [3S(1S,9S)]3-(9-Benzoylamino-6,10-dioxo-1,2,3,4,7,8,9,10-octahydro-6H-pyridazino[1,2-a][1,2]-diazepine-1-carboxamido)-4-oxobutanoic acid]	1300 nM	7.5 nM				
CN(C)c1ccc(C(=O)N[C@H]2CCC(=O)N3CCC[C@@H](C(=O)N[C@H](C=O)CC(=O)O)N3C2=O)cc1 [Compound 471]	400 nM	1 nM				
COc1cc(C(=O)N[C@H]2CCC(=O)N3CCC[C@@H](C(=O)N[C@H](C=O)CC(=O)O)N3C2=O)cc(OC)c1OC [Compound 417, [3S(1S,9S)]3-[6,10-Dioxo-1,2,3,4,7,8,9,10-octahydro-9-(3,4,5-trimethoxybenzoylamino)-6H-pyridazino[1,2-a][1,2]diazepine-1-carboxamido]-4-oxobutanoic acid]	6000 nM	8 nM				
CCOC1OC(=O)C[C@@H]1NC(=O)[C@@H]1CCCN2C(=O)CC[C@H](NC(=O)c3ccccc3)C(=O)N12 (stereo partly drawn) [Compound 2100e, [1S,9S(2RS,3S)]9-Benzoylamino-6,10-dioxo-1,2,3,4,7,8,9,10-octahydro-N-(2-ethoxy-5-oxo-tetrahydro-furan-3-yl)-6H-pyridazino[1,2-a][1,2]-diazepine-1-carboxamide]	600 nM	250 nM				
CC(C)C(=O)Nc1ccc(C(=O)N[C@H]2CCC(=O)N3CCC[C@@H](C(=O)N[C@H](C=O)CC(=O)O)N3C2=O)cc1 [Compound 484]	5000 nM	2 nM				
CC(=O)Nc1ccc(C(=O)NN2CCC(=O)N3CCC[C@@H](C(=O)N[C@H](C=O)CC(=O)O)N3C2=O)cc1 [Compound 1018, [3S(4S)]3-{7-[(4-Acetamido)benzamido]-6,10-Dioxo-1,2,3,4,7,8,9,10-octahydro-6H-pyridazino[1,2-a][1,2,4]-triazepine-4-carboxamido}-4-oxobutanoic acid]			5500 nM	170 nM		
O=C1C[C@H](NC(=O)[C@@H]2CCCN3C(=O)CC[C@H](NC(=O)c4ccccc4)C(=O)N23)[C@H](OCc2ccccc2)O1 [Compound 2100o, [1S,9S(2R,3S)]9-Benzoylamino-N-(2-benzyloxy-5-oxotetrahydrofuran-3-yl)-6,10-dioxo-1,2,3,4,7,8,9,10-octahydro-6H-pyridazino[1,2-a][1,2]diazepine-1-carboxamide]			1500 nM	670 nM		
